# What was measured:
# [1] = test system: luciferase (Luc) mRNA; test: Luciferase expression (whole body bioluminescence) after intravenous administration to mice; format: in vivo; conditions: for Novel lipid/MC3 expression ratio, i.v.: 6 hr. time point, relative to MC3 formulation
# Experimental: In order to monitor how effectively various nanoparticle compositions deliver therapeutic and/or prophylactics to targeted cells, different nanparticle compositions including a particular therapeutic and/or prophylactic (for example, a modified or naturally occurring RNA such as an mRNA) are prepared and administered to rodent populations. Mice are intravenously, intramuscularly, intraarterially, or intratumorally administered a single dose including a nanoparticle composition with a formulation such as those provided in Example 3. In some instances, mice may be made to inhale doses. Dose sizes may range from 0.001 mg/kg to 10 mg/kg, where 10 mg/kg describes a dose including 10 mg of a therapeutic and/or, prophylactic in a nanoparticle composition for each 1 kg of body mass of the mouse. A control composition including PBS may also be employed.
# Upon administration of nanoparticle compositions to mice, dose delivery profiles, dose responses, and toxicity of particular formulations and doses thereof can be measured by enzyme-linked immunosorbent assays (ELISA), bioluminescent imaging, or other methods. For nanoparticle compositions including mRNA, time courses of protein expression can also be evaluated. Samples collected from the rodents for evaluation may include blood, sera, and tissue (for example, muscle tissue from the site of an intramuscular injection and internal tissue); sample collection may involve sacrifice of the animals.
# The efficacy of the nanoparticle compositions presented in Table 1A was evaluated with a bioluminescence study. Formulations were administered intravenously to mice (n=6) at a dosage of 0.5 mg/kg (mpk) and bioluminescence measured at 3, 6, and 24 hour time points. The standard MC3 formulation and, in some instances, a control (e.g., a PBS control) were evaluated for comparison. […] In general, flux decreased as time progressed to less than 10% of the initial flux.
# The total flux (measured by area under the curve, AUC) induced by administration of a formulation including a given lipid relative to that induced by administration of a formulation including MC3 was also measured for several lipids.
# [2] = Particle size and polydispersity index of nanoparticle compositions (Zetasizer Nano ZS); format: physicochemical
# Procedure, shortened: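 Formulations of ionizable lipid, DSPC, cholesterol and PEG-DMG (50:10:38.5:1.5 mol %) carrying Luc or hEPO mRNA with all uridines as N1-methyl pseudouridine. Dynamic light scattering in 1×PBS gave particle size and polydispersity; zeta potential read in 15 mM PBS.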
# [3] = test system: modified luciferase; test: Luciferase expression in liver, lung, spleen and femur 6 hours after intravenous administration to mice; format: in vivo; conditions: 6 hours after intravenous 0.5 mpk, mice
# Procedure, shortened: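 Mice (n=3) got a single 0.5 mpk IV dose of each nanoparticle composition, with MC3 and PBS controls alongside. Organ luminescence flux was read 6 h post-dose.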
# [4] = Encapsulation efficiency of RNA in nanoparticle compositions (RIBOGREEN assay); format: physicochemical; conditions: Table 1A; lipid:DSPC:cholesterol:PEG-DMG 50:10:38.5:1.5 mol %
# Experimental: For nanoparticle compositions including an RNA, a QUANT-IT™ RIBOGREEN® RNA assay (Invitrogen Corporation Carlsbad, Calif.) can be used to evaluate the encapsulation of an RNA by the nanoparticle composition. The samples are diluted to a concentration of approximately 5 μg/mL, in a TE buffer solution (10 mM Tris-HCl, 1 mM EDTA, pH 7.5). 50 μL of the diluted samples are transferred to a polystyrene 96 well plate and either 50 μL of TE buffer or 50 μL of a 2% Triton X-100 solution is added to the wells. The plate is incubated at a temperature of 37° C. for 15 minutes. The RIBOGREEN® reagent is diluted 1:100 in TE buffer, and 100 μL of this solution is added to each well. The fluorescence intensity can be measured using a fluorescence plate reader (Wallac Victor 1420 Multilabel Counter; Perkin Elmer, Waltham, Mass.) at an excitation wavelength of, for example, about 480 nm and an emission wavelength of, for example, about 520 nm. The fluorescence values of the reagent blank are subtracted from that of each of the samples and the percentage of free RNA is determined by dividing the fluorescence intensity of the intact sample (without addition of Triton X-100) by the fluorescence value of the disrupted sample (caused by the addition of Triton X-100).
# Initial studies were performed to compare the delivery efficiency of nanoparticle compositions including various compounds according to Formula (I), (IA), (IB), (II), (IIa), (IIb), (IIc), (IId), (IIe), (IIf), (IIg), or (III). The cationic lipid MC3 is a current standard in the art. Accordingly, the standard MC3 formulation including about 50 mol % MC3, about 10 mol % DSPC, about 38.5 mol % cholesterol, and about 1.5 mol % PEG-DMG was used as a basis for this study. Nanoparticle compositions including DSPC as a phospholipid, cholesterol as a structural lipid, PEG-DMG as a PEG lipid, an RNA, and a compound according to Formula (I), (IA), (IB), (II), (IIa), (IIb), (IIc), (IId), (IIe), (IIf), (IIg), or (III) selected from Compounds 1-159, 168-170, and 173-175 were prepared according to or via methods similar to those described in Examples 1 and 2. The ratios of the lipids were 50:10:38.5:1.5 mol % for the lipid according to Formula (I), (IA), (IB), (II), (IIa), (IIb), (IIc), (IId), (IIe), (IIf), (IIg), or (III):DSPC:cholesterol:PEG-DMG. The RNA used was an mRNA encoding luciferase (Luc) or hEPO, wherein each uridine was replaced N1-methyl pseudouridine. Tables 1A-1E summarize the content and characteristics of the formulations.
# [5] = Table 1A, lipid:DSPC:cholesterol:PEG-DMG 50:10:38.5:1.5 mol %
# [6] = intravenous administration (Table 3D)
SMILES,AUC ([1]; i.v. administration (Table 3C)) [h*p/s],"Size [2, 5] [nm]","Total Flux, Liver [3]","Total Flux, Lung [3]","Total Flux, Spleen [3]","Novel lipid/MC3 ratio, i.v. ([1]; Table 3G, intravenous, luciferase, 6 hr. timepoint, relative to MC3)","Novel lipid/MC3 expression ratio, i.v. ([1]; intravenous, luciferase)","Size ([2]; Table 1C, compositions for subcutaneous administration) [nm]",EE [4] [%],"AUC [1, 6] [p/s*h]"
"CCCCCCCCCOC(=O)CCCCCCCN(CCCCCCCC(=O)OC(CCCCCCCC)CCCCCCCC)CCN1CCN(C)CC1 [Compound 101, Heptadecan-9-yl 8-((2-(4-methylpiperazin-1-yl)ethyl)(8-(nonyloxy)-8-oxooctyl)amino)octanoate]",1.8E+09,91.7,1.27E+07,1.77E+05,5.60E+06,,,,,
"CCCCCCCCCOC(=O)CCCCCCCN(CCCCCCCC(=O)OC(CCCCCCCC)CCCCCCCC)CCCNC(=S)NC [Compound 113, Heptadecan-9-yl 8-((3-(3-methylthioureido)propyl)(8-(nonyloxy)-8-oxooctyl)amino)octanoate]",,86.8,1.11E+09,5.55E+06,5.22E+07,0.59,0.59,83.9,,
"CCCCCCCCCOC(=O)CCCCCCCN(CCO)CCCCCCCOP(=O)(OCCCCCCCC)OCCCCCCCC [Compound 131, Nonyl 8-((7-((bis(octyloxy)phosphoryl)oxy)heptyl)(2-hydroxyethyl)amino)octanoate]",9.29E+10,,3.52E+08,1.45E+07,8.32E+08,,,,75.44,
"CCCCCCCCOP(=O)(OCCCCCCCC)OCCCCCCCN(CCO)CCCCCCCC(=O)OC(C)CCCCCCCC (centres unmarked) [Compound 132, Decan-2-yl 8-((7-((bis(octyloxy)phosphoryl)oxy)heptyl)(2-hydroxyethyl)amino)octanoate]",1.75E+10,,1.49E+08,1.39E+07,3.37E+08,,,,30.77,
"CCCCCCCCC(CCCCCCCC)OC(=O)CCCCCCCN(CCO)CCCCCCCC(=O)N(C)CCCCCCCC [Compound 145, Heptadecan-9-yl 8-((2-hydroxyethyl)(8-(methyl(octyl)amino)-8-oxooctyl)amino)octanoate]",8.1E+10,,5.01E+08,1.36E+07,4.25E+08,,,,89.15,
"CCCCCCCCC(CCCCCCCC)OC(=O)CCCCCCCN(CCO)CCCCCCCC(=O)OCC(CCCCCCC)OC (centres unmarked) [Compound 148, Heptadecan-9-yl 8-((2-hydroxyethyl)(8-((2-methoxynonyl)oxy)-8-oxooctyl)amino)octanoate]",,,4.39E+09,3.27E+07,2.71E+09,,,,25.49,4.965E+011
"CCCCCCCCC(CCCCCCCC)OC(=O)CCCCCCCN(C)CCCCCCCCCC(=O)OCCCCCCC [Compound 149, Heptyl 10-((8-(heptadecan-9-yloxy)-8-oxooctyl)(methyl)amino)decanoate]",,62.1,1.11E+09,2.69E+06,2.71E+07,,,,,1.057E+011
"CCCCCCCCCOC(=O)CCCCCCCN(CCO)CCCCCCC/C=C\C(CCCCCCCC)CCCCCCCC [Compound 152, Nonyl (Z)-8-((2-hydroxyethyl)(10-octyloctadec-8-en-1-yl)amino)octanoate]",,62.6,1.43E+08,3.16E+05,6.63E+06,,,,,2.855E+010
"CCCCCCCCCOC(=O)CCCCCCCN(CCO)CCCCCCCCCC(CCCCCCCC)CCCCCCCC [Compound 153, Nonyl 8-((2-hydroxyethyl)(10-octyloctadecyl)amino)octanoate]",,83.7,1.18E+09,6.42E+06,1.42E+08,,,,,2.697E+011
"CCCCCCCCC(CCCCCCCC)OC(=O)CCCCCCCN(CCO)CCCCCCCC(=O)OC(C)(C)C [Compound 155, tert-Butyl 8-((8-(heptadecan-9-yloxy)-8-oxooctyl)(2-hydroxyethyl)amino)octanoate]",,,8.58E+08,1.00E+07,2.77E+08,,,,37.36,1.266E+011
"CCCCCCCCCOC(=O)CCCCCCCN(CCO)CCCCCCCC(=O)OC(C)(C)C [Compound 158, tert-Butyl 8-((2-hydroxyethyl)(8-(nonyloxy)-8-oxooctyl)amino)octanoate]",,,1.99E+05,1.71E+04,1.17E+05,,,,35.70,1.211E+007
"CCCCCCCCCOC(=O)CCCCCCCN(CCO)CCN(CCO)CCCCCCCC(=O)OC(CCCCCCCC)CCCCCCCC [Compound 159, Heptadecan-9-yl 8-((2-hydroxyethyl)(2-((2-hydroxyethyl)(8-(nonyloxy)-8-oxooctyl)amino)ethyl)amino)octanoate]",,75.9,1.13E+06,2.17E+05,7.24E+05,,,,,1.355E+008
"CCCCCCCCCOC(=O)CCCCCCCN(CCCCCCCC(=O)OC(CCCCCCCC)CCCCCCCC)CCCNC(=O)COC [Compound 178, Heptadecan-9-yl 8-((3-(2-methoxyacetamido)propyl)(8-(nonyloxy)-8-oxooctyl)amino)octanoate]",,104.2,,,,,0.03,,94.7,
"CCCCCCCCCOC(=O)CCCCCCCN(CCCCCCCC(=O)OC(CCCCCCCC)CCCCCCCC)CCCn1cc(CO)nn1 [Compound 218, Heptadecan-9-yl 8-((3-(4-(hydroxymethyl)-1H-1,2,3-triazol-1-yl)propyl)(8-(nonyloxy)-8-oxooctyl)amino)octanoate]",,81.4,,,,,>0.01,,98.8,
